Where two headings read alike, the source gives them in different places.
How the values were obtained:
[1] = target: Cathepsin L (Homo sapiens (Human), UniProt P07711); assay: Cathepsin enzyme inhibition assay (fluorogenic peptide substrate Z-Val-Val-Arg-AMC); format: biochemical; conditions: enzyme 1 nM, substrate 20 μM, pH 6.5
Procedure: Enzyme activity is measured by observing the increase in fluorescence intensity caused by cleavage of a peptide substrate containing a fluorophore whose emission is quenched in the intact peptide.
Assay buffer: 100 mM potassium phosphate pH 6.5, EDTA-Na 5 mM, Triton X-100 0.001%, DDT 5 mM.
Enzymes (all at 1 nM): human and mouse Cathepsin S, Cat K, Cat B, Cat L
Substrate (20 μM): Z-Val-Val-Arg-AMC, except for Cat K which uses Z-Leu-Arg-AMC (both from Bachem).
AMC=7-Amino-4-Methyl-Coumarin.
Excitation 360 nm, Emission 465 nm.
Enzyme is added to the substance dilutions in 96-well microtitre plates and the reaction is started with substrate. […] IC50 are calculated by standard methods. The results are expressed in μM in the following table.

[2] = rcm bond, 16-membered ring, DCM, 50.0 °C
[3] = from C=CCOc1ccc(C[C@H](NC(=O)c2ccccc2OCC=C)C(=O)NC2(C#N)CC2)cc1; rcm bond; 16-membered ring; Grubbs II (0.3 eq); DCM; 2.88 mM; 50.0 °C

Chain of Cathepsin L (P07711 114-333): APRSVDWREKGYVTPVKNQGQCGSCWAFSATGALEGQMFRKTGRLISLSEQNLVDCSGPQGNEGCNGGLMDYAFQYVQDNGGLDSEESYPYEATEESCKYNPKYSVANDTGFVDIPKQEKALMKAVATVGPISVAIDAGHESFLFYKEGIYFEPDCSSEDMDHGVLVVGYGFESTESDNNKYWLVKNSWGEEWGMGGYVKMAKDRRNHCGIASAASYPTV

| Structure (SMILES) | IC50 [1] | ring closure, isolated yield ([2]; from C=CCOc1ccc(C[C@H](NC(=O)c2ccc(C)nc2SCC=C)C(=O)NC2(C#N)CC2)cc1Cl, Grubbs II (0.3 eq)/Ti(OiPr)4 (0.6 eq), 1.15 mM) | ring closure, isolated yield ([2]; Grubbs II) | ring closure, yield after HPLC [3] |
| --- | --- | --- | --- | --- |
| Cc1ccc2c(n1)SC/C=C/COc1ccc(cc1Cl)C[C@@H](C(=O)NC1(C#N)CC1)NC2=O [Example 19, (E)-(S)-19-Chloro-9-methyl-5-oxo-17-oxa-12-thia-4,10-diaza-tricyclo[16.2.2.0*6,11*]docosa-1(21),6,8,10,14,18(22),19-heptaene-3-carboxylic acid (1-cyano-cyclopropyl)-amide] | 26 nM | 6% | – | – |
| COc1ccc2c(c1)CC/C=C/COc1ccc(cc1Cl)C[C@@H](C(=O)NC1(C#N)CC1)NC2=O [Example 18, (E)-(S)-19-Chloro-9-methoxy-5-oxo-17-oxa-4-aza-tricyclo[16.2.2.0*6,11*]docosa-1(21),6,8,10,14,18(22),19-heptaene-3-carboxylic acid (1-cyano-cyclopropyl)-amide] | 54.7 nM | – | 48% | – |
| N#CC1(NC(=O)[C@@H]2Cc3ccc(cc3)OC/C=C/COc3ccccc3C(=O)N2)CC1 [Example 1, (E)-(S)-5-Oxo-12,17-dioxa-4-aza-tricyclo[16.2.2.0*6,11*]docosa-1(21),6(11),7,9,14,18(22),19-heptaene-3-carboxylic acid (1-cyano-cyclopropyl)-amide] | 88.5 nM | – | – | 20% |
